In ChEMBL document CHEMBL3045896, “Synthesis of novel porphyrin-based lipids and their antibacterial activity” (2011):

How the values were obtained:
Assay type in all cases: functional
Details in all cases: read-out: DIZ
Klebsiella pneumoniae [1] = assay: Antibacterial activity against Klebsiella pneumoniae MTCC 109 at 75 ug/ml after overnight incubation by disk diffusion method
Staphylococcus aureus [2] = assay: Antibacterial activity against Staphylococcus aureus MTCC 96 at 75 ug/ml after overnight incubation by disk diffusion method
Escherichia coli [3] = assay: Antibacterial activity against Escherichia coli MTCC 722 at 75 ug/ml after overnight incubation by disk diffusion method
Bacillus subtilis [4] = assay: Antibacterial activity against Bacillus subtilis MTCC 619 at 75 ug/ml after overnight incubation by disk diffusion method
Proteus vulgaris [5] = assay: Antibacterial activity against Proteus vulgaris MTCC 1771 at 75 ug/ml after overnight incubation by disk diffusion method
Staphylococcus aureus [6] = assay: Antibacterial activity against Staphylococcus aureus MTCC 96 at 30 ug/ml after overnight incubation by disk diffusion method
Escherichia coli [7] = assay: Antibacterial activity against Escherichia coli MTCC 722 at 30 ug/ml after overnight incubation by disk diffusion method
Proteus vulgaris [8] = assay: Antibacterial activity against Proteus vulgaris MTCC 1771 at 30 ug/ml after overnight incubation by disk diffusion method
Klebsiella pneumoniae [9] = assay: Antibacterial activity against Klebsiella pneumoniae MTCC 109 at 30 ug/ml after overnight incubation by disk diffusion method
Bacillus subtilis [10] = assay: Antibacterial activity against Bacillus subtilis MTCC 619 at 30 ug/ml after overnight incubation by disk diffusion method

Row | Structure (SMILES) | zone of inhibition at 75 µg/mL (Klebsiella pneumoniae [1]) [mm] | zone of inhibition at 75 µg/mL (Staphylococcus aureus [2]) [mm] | zone of inhibition at 75 µg/mL (Escherichia coli [3]) [mm] | zone of inhibition at 75 µg/mL (Bacillus subtilis [4]) [mm] | zone of inhibition at 75 µg/mL (Proteus vulgaris [5]) [mm] | zone of inhibition at 30 µg/mL (Staphylococcus aureus [6]) [mm] | zone of inhibition at 30 µg/mL (Escherichia coli [7]) [mm] | zone of inhibition at 30 µg/mL (Proteus vulgaris [8]) [mm] | zone of inhibition at 30 µg/mL (Klebsiella pneumoniae [9]) [mm] | zone of inhibition at 30 µg/mL (Bacillus subtilis [10]) [mm]
1 | CCCCCCCCCCCCCCCCN(CCCCCCCCCCCCCCCC)Cc1c2nc(cc3ccc(cc4nc(cc5ccc1[nH]5)C=C4)[nH]3)C=C2 | 12 | 15 | 14 | 16 | 14 |  |  |  |  | 
2 | CCCCCCCCCCCCCCCCC/C1=c2\cc/c([nH]2)=C(\CCCCCCCCCCCCCCCCC)C2=N/C(=C\C3=NC(=CC3)/C=C3/C=CC1=N3)C=C2 | 10 | 13 | 13 | 14 | 12 |  |  |  |  | 
3 | O=C(N[C@H](CO)[C@H](O)c1ccc([N+](=O)[O-])cc1)C(Cl)Cl [CHLORAMPHENICOL] |  |  |  |  |  | 23 | 31 | 14 | 24 | 23
